Assay type in all cases: cell-based
The test system of experiment [1] is LNCaP cells. Description: ROS generation by NBT reduction assay. The conditions noted are these: 16 hours. As to the method:
(§1) The LNCaP cells were grown as a complete monolayer in RPMI-1640 growth medium supplemented with 10% fetal bovine serum, 10,000 U/mL of penicillin, 10,000 μg/mL of streptomycin, 1% (+)-L-glutamine, and 1% amphotericin-B. The cells were grown at 37° C. under a humidified air/CO2 (19:1) atmosphere. All experiments were conducted using cells in logarithmic phase. In each well of a six-well plate, approximately 1×10^6 cells per well were grown for 24 hours.
(§2) To determine the cell viability, monolayer culture of LNCaP cells were treated with different concentrations of the C-PC (250 and 500 μg mL−1) and topotecan (1 μM and 10 μM) individually and in combination of C-PC (250 and 500 μg mL−1) with topotecan at 1 μM for 16 hours. After the incubation period, cell death was determined by using trypan blue dye exclusion test. To determine the levels of ROS generation, the cells cultured in 6-well plate were incubated with different concentrations of C-PC and topotecan as described above for 16 hours. At the end of incubation period, levels of ROS generated were measured using the NBT reduction assay.

The next experiment relates to caspase-3. Kind of experiment: Caspase-3 activity, colorimetric assay of cell lysates (Ac-DEVD-pNA). The conditions noted are these: LNCaP; C-PC 250 μg/mL, topotecan 10 μM; 16 hours. On the procedure:
(§3) LNCaP cells were treated with different concentrations of the C-PC (250 μg mL−1) and topotecan (10 μM) for 16 hours. After the incubation time, cells were harvested, washed and resuspended in cell lysis buffer and kept on ice for 10 minutes. The cell lysate was centrifuged at 5000 rpm for 5 minutes, the supernatant was assayed for protein concentration and further diluted with the lysis buffer to adjust the protein concentration. Equal amounts of protein from each sample was added to 96-well plates and mixed with the 2×reaction buffer [100 mM HEPES (pH 7.4), 200 mM NaCl, 20 mM dithiotheritol, 2 mM EDTA, and 0.2% chaps] and 2 mM of the respective substrates acetyl-Leu-Glu-His-Asp-p-nitroaniline (Ac-LEHD-pNA) and acetyl-Asp-Glu-Val-Asp-p-nitroaniline (Ac-DEVD-pNA). For measuring the specific activity of caspase-9 and caspase-3, the respective inhibitors Ac-LEHD-CHO and Ac-DEVD-CHO were used. Release of the cleaved p-nitroanilide from the tetrapeptide substrates was measured using the 96-well microplate reader at 405 nm.

A further experiment relates to caspase-9. Kind of experiment: Caspase-9 activity, colorimetric assay of cell lysates (Ac-LEHD-pNA). The conditions noted are these: LNCaP; C-PC 250 μg/mL, topotecan 10 μM; 16 hours. As to the method:
as §3

The test system of experiment [2] is LNCaP cells. Kind of experiment: Cell death / cell viability by trypan blue dye exclusion test. The conditions noted are these: for inhibition of cell growth (percentage of live cells, FIG. 1): LNCaP, C-PC 250 and 500 μg/mL or topotecan 1 μM and 10 μM individually, 16 hours. As to the method: as §1, §2

Take `CC[C@@]1(O)C(=O)OCc2c1cc1n(c2=O)Cc2cc3c(CN(C)C)c(O)ccc3nc2-1` [topotecan, reference compound]: in the experiment on LNCaP cells [1], the “rate of ROS generation (FIG. 2)” value is listed as “significant increase in the rate of ROS generation”. For the same compound, the “caspase-3 activity compared to untreated control cells (FIG. 4)” value in the experiment on caspase-3 is on record as “increased”. Further, the “caspase-9 activity compared to untreated control cells (FIG. 4)” value in the experiment on caspase-9 is given as “increased”. In the experiment on LNCaP cells [2], the “inhibition of cell growth (percentage of live cells, FIG. 1)” value was “significant inhibition of cell growth”.

As to phycocyanin, the “rate of ROS generation (FIG. 2)” value in the experiment with LNCaP cells [1] was “significant increase in the rate of ROS generation”. Also, the “caspase-3 activity compared to untreated control cells (FIG. 4)” value in the experiment with caspase-3 is recorded as “increased”. The “caspase-9 activity compared to untreated control cells (FIG. 4)” value in the experiment on caspase-9 is listed as “increased”. The “inhibition of cell growth (percentage of live cells, FIG. 1)” value in the experiment on LNCaP cells [2] is listed as “significant inhibition of cell growth”. Further, the antiproliferative activity result in the experiment on LNCaP cells [2] (prostate cancer cell line LNCaP, preliminary work) is given as “had antiproliferative activity”.

These data come from patent US20140314890A1, “COMBINATION ANTI-CANCER THERAPY” (THE FLORIDA INTERNATIONAL UNIVERSITY BOARD OF TRUSTEES, priority 2011, published 2014).
